The record followed here is PMC3116808 (Journal of natural products, 2011).

Common to all, as to format: cell-based
One assay has as its system NCI-H460. As to the kind of experiment: Human cancer cell line minipanel: lung NCI-H460.
The subject of another assay is BXPC-3. As to the kind of experiment: Human cancer cell line minipanel: pancreas BXPC-3.
A further assay relates to DU-145. The assay is described as follows: Human cancer cell line minipanel: prostate DU-145.
Another assay has as its system SF-268. The assay is described as follows: Human cancer cell line minipanel: CNS SF-268.
Another assay has as its system MCF-7. The assay is described as follows: Human cancer cell line minipanel: breast MCF-7. Particulars: MCF7.
In assay [1] the test system is P388 lymphocytic leukemia cell line. The assay is described as follows: Murine P388 lymphocytic leukemia cell line growth inhibition.
In the next assay the test system is KM20L2. The assay is described as follows: Human cancer cell line minipanel: colon KM20L2. Conditions: KM-20L2.
Assay [2] concerns panel of murine and human cancer cell lines. As to the kind of experiment: Cancer cell growth inhibition, summary over the panel.

Converted amounts (≈) assume the structure as drawn. Where only a bound is given, the exact number is not on record here.

Regarding `CC[C@H](C)[C@@H]([C@@H](CC(=O)N1CCC[C@H]1[C@H](OC)[C@@H](C)C(=O)NCCc1ccc(OP(=O)([O-])[O-])cc1)OC)N(C)C(=O)[C@@H](NC(=O)[C@H](C(C)C)N(C)C)C(C)C.[Na+].[Na+]` [3b, Sodium Auristatin TP], the 50% growth inhibitory concentration (GI50) in the assay on NCI-H460 is 0.88 ng/mL; with BXPC-3 it was 46 ng/mL; in the assay on DU-145, 0.54 ng/mL; in the assay on SF-268 it was 1.25 ng/mL; in the assay with MCF-7, 0.68 ng/mL; in the assay with KM20L2, 0.61 ng/mL. Further, the ED50 in assay [1] was below 1 ng/mL. Besides, the “ED50 (nanomolar value in parentheses)” value in assay [1] is recorded as below 1.2 nM.

For the compound `CC[C@H](C)[C@@H]([C@@H](CC(=O)N1CCC[C@H]1[C@H](OC)[C@@H](C)C(=O)NCCc1ccc(OP(=O)([O-])[O-])cc1)OC)N(C)C(=O)[C@@H](NC(=O)[C@H](C(C)C)N(C)C)C(C)C.[K+].[K+]` [3c, Potassium Auristatin TP], in assay [1], the ED50 turned out to be 7.6 ng/mL and the “ED50 (nanomolar value in parentheses)” value came out at 8.7 nM.

With `CC[C@H](C)[C@@H]([C@@H](CC(=O)N1CCC[C@H]1[C@H](OC)[C@@H](C)C(=O)Nc1ccc2ccccc2n1)OC)N(C)C(=O)[C@@H](NC(=O)[C@H](C(C)C)N(C)C)C(C)C` [compound 4, Dov-Val-Dil-Dap-2-aminoquinoline], the concentration for 50% growth inhibition (GI50) with NCI-H460 is 16 ng/mL (≈ 22.1 nM); in the assay on BXPC-3, 29 ng/mL (≈ 40 nM); in the assay with DU-145, 23 ng/mL (≈ 31.7 nM); with SF-268, 29 ng/mL (≈ 40 nM); with MCF-7, 4.6 ng/mL (≈ 6.34 nM); with KM20L2, 7.7 ng/mL (≈ 10.6 nM). In assay [1], this compound registered an ED50 of 31 ng/mL (≈ 42.8 nM). For the same compound, the “ED50 (nanomolar value in parentheses)” value in assay [1] amounted to 42.8 nM.

In the case of `CC[C@H](C)[C@@H]([C@@H](CC(=O)N1CCC[C@H]1[C@H](OC)[C@@H](C)C(=O)Nc1ccc2ncccc2c1)OC)N(C)C(=O)[C@@H](NC(=O)[C@H](C(C)C)N(C)C)C(C)C` [compound 5, Dov-Val-Dil-Dap-6-aminoquinoline], the GI50 turned out to be 0.36 ng/mL (≈ 0.497 nM) in the assay with NCI-H460; 0.31 ng/mL (≈ 0.428 nM) in the assay with BXPC-3; 0.3 ng/mL (≈ 0.414 nM) with DU-145; 0.1 ng/mL (≈ 0.138 nM) in assay [2]; 0.16 ng/mL (≈ 0.221 nM) in the assay on SF-268; 0.14 ng/mL (≈ 0.193 nM) with MCF-7. The compound also returned a 50% growth inhibitory concentration (GI50) in the assay on KM20L2 of 0.25 ng/mL (≈ 0.345 nM). Moreover, the ED50 in assay [1] was 2.6 ng/mL (≈ 3.59 nM). Moreover, the “ED50 (nanomolar value in parentheses)” value in assay [1] is listed as 3.59 nM.

In the case of `CC[C@H](C)[C@@H]([C@@H](CC(=O)N1CCC[C@H]1[C@H](OC)[C@@H](C)C(=O)NCCc1ccc(O)cc1)OC)N(C)C(=O)[C@@H](NC(=O)[C@H](C(C)C)N(C)C)C(C)C` [compound 9, Dov-Val-Dil-Dap-4-hydroxyphenethylamide], in assay [1], the ED50 worked out at 3.6 ng/mL (≈ 5.01 nM) and the “ED50 (nanomolar value in parentheses)” value was 5.0 nM.

In general, GI50 refers to the concentration giving 50% growth inhibition. A low value points to greater sensitivity of the cells.
